Data taken from patent US6972287B1, “Method of inhibiting amyloid protein aggregation and imaging amyloid deposits” (Pfizer Inc., priority 1999, dated 2005).
“And” between values parts separate entries of the source, which are not always exact repeats. Equal values may be shown once.

Experiments:
Aβ (1-42) = biological target: T1, Aβ (1-42) (Homo sapiens, UniProt P05067); assay: BATYM assay (Aβ (1-42) aggregation, Thioflavin T fluorescence); assay type: biochemical; details: Aβ 1-42 final concentration 100 μM, 37° C., 1 day, letter = synthetic lot
T1 construct: Required Aβ (1-42) (California Peptide) was dried from its hexafluoroisopropanol (HFIP) stock solution; purchased California Peptide
T1 sequence (P05067 672-713 limits assumed): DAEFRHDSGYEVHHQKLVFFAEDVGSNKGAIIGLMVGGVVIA
Method in brief: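 Aβ (1-42) (100 μM final, PBS pH 7.4 from DMSO) incubated with compound at 37° C. for 1 day. Aggregation read by ThT (30 μM, glycine-NaOH pH 8.5) fluorescence, ex 440/em 485 nm; inhibition as fluorescence reduction corrected for compound-alone signal, IC50 by curve fitting from two experiments in triplicate.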

Aβ(1-40) [1] = biological target: T2, Aβ(1-40) (Homo sapiens, UniProt P05067); assay: BASST (Beta-Amyloid Self-Seeding, Thioflavin T), inhibitors of self-seeded amyloid fibril growth; assay type: biochemical; details: 30 μM soluble Aβ(1-40), 37° C., 3 to 5 hours, thioflavin T fluorescence; replicate values; letter = synthetic lot; read-out: BASST (IC50 = μM)
T2 construct: […]; purchased Bachem, Torrance, Calif
T2 sequence (P05067 672-711 limits assumed): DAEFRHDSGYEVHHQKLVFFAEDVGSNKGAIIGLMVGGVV
Method in brief: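 Self-seeded Aβ(1-40) fibril growth was run in 50 mM sodium phosphate pH 7.5, 100 mM NaCl, 0.02% NaN3, 1 M urea. Compounds were tested in 3-fold serial dilutions (top 100 μM final): 10 min on ice, then 3–5 h at 37 °C. Fibrils were read by 5 μM thioflavin T fluorescence (ex 440/em 485 nm).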

Aβ (1-40) peptide = biological target: T3, Aβ (1-40) peptide (Homo sapiens, UniProt P05067); assay: BAPA (Beta-Amyloid Peptide Aggregation, pH 6.0, filtration); assay type: biochemical; details: Aβ (1-40) 33 μM, pH 6.0, 2 to 4 hours at room temperature; replicate values; letter = synthetic lot
T3 construct: 10 μL 0.5 mg/mL Aβ (1-40) peptide in 20% HFIP
T3 sequence (P05067 672-711 limits assumed): as above
Method in brief: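 Aggregation of human Aβ (1-40) peptide was measured in an endpoint filtration assay. The peptide was first reduced to monomer with hexafluoroisopropanol (HFIP), then used at 33 μM so it would aggregate at pH 6.0, and incubated for 2 to 4 hours at room temperature. Filter plates were washed with 100 μL phosphate buffer, impregnated with Meltilex, and counted on a Microbeta counter with background correction.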

Aβ(1-40) [2] = biological target: T2, Aβ(1-40); assay: BASSR (Beta-Amyloid Self-Seeding Radioassay), inhibitors of self-seeded amyloid fibril growth; assay type: biochemical; details: 30 μM soluble Aβ(1-40) + 125I-labeled Aβ(1-40), 37° C., 3 to 5 hours; replicate values; letter = synthetic lot; ppt = precipitate; V-shaped = inhibition followed by precipitation
Method in brief: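 Self-seeded growth of ^125I-labeled Aβ(1-40) fibrils in 50 mM sodium phosphate pH 7.5, 100 mM NaCl, 0.02% NaN3, 1 M urea; compound (3-fold dilutions from 100 μM final) preincubated 10 min on ice, then 3–5 h at 37° C. Fibrils collected by vacuum filtration on 0.2 μm filters and counted for radioactivity.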

| Compound | IC50 (Aβ (1-42)) [µM] | melting point [°C] | IC50 (Aβ(1-40) [1]) | IC50 (Aβ (1-40) peptide) [µM] | IC50 (Aβ(1-40) [2]) |
| --- | --- | --- | --- | --- | --- |
| CCCN(CCC)c1ccc(CCc2ccc(Nc3ccccc3C(=O)O)cc2)cc1.Cl [Example 25, 2-{4-[2-(4-Dipropylaminophenyl)ethyl]phenylamino}benzoic acid monohydrochloride] | 21.1 | 176 to 177 | 4 µM | 47 | > 100 µM |
| Cc1ccc(Nc2ccc(CCCc3ccc(Cl)c(Cl)c3)cc2)c(C(=O)O)c1 [Example 59, 2-{4-[3-(3,4-Dichloro-phenyl)propyl]phenylamino}-5-methyl-benzoic acid] | > 100 | 98 to 99 | > 100 µM | 3 | > 100 µM |
| CCCCN1CCCc2cc(C=C3SC(=S)N(CC(=O)O)C3=O)ccc21 [Example 55, {5-[(1-Butyl-1,2,3,4-tetrahydro-6-quinolyl)methylidene]-4-oxo-2-thioxothiazolidin-3-yl}acetic acid] | 5.1 | 222 to 224 | 2 µM | 101 | 12 µM |
| O=C(O)c1ccc(Nc2ccc(CCc3ccc(Cl)c(Cl)c3)cc2)c(C(=O)O)c1 [Example 144, 4-{4-[2-(3,4-Dichloro-phenyl)-ethyl]-phenylamino}-isophthalic acid] | > 100 | 264 to 266 | 40 µM | 114 | 15 µM and 25 µM |
| CCN(CC)c1cccc(CCc2ccc(Nc3ccccc3C(=O)O)cc2)c1.Cl [Example 41, 2-{4-[2-(3-Diethylaminophenyl)ethyl]phenylamino}benzoic acid monohydrochloride] | 49.7 | 166 to 171 | 5 µM | 42 | > 100 µM |
| O=C(O)c1c(Nc2ccc(CCc3ccc(Cl)c(Cl)c3)cc2)cccc1C(F)(F)F [Example 78, 2-{4-[2-(3,4-Dichloro-phenyl)-ethyl]-phenylamino}-6-trifluoromethyl-benzoic acid] | > 100 | 130 to 132 | 0.1 µM | 8 | 70 µM |
| O=C(O)c1ccccc1Nc1ccc(CCc2ccc(F)c(C(F)(F)F)c2)cc1 [Example 66, 2-{4-[2-(4-Fluoro-3-trifluoromethyl-phenyl)-ethyl]-phenylamino}-benzoic acid] | 50.1 | 148 to 150 | 2.1 µM | > 100 | > 100 µM |
| CN(C)c1ccc(Nc2ccc(CCc3ccc(Cl)c(Cl)c3)cc2)c(C(=O)O)c1 [Example 80, 2-{4-[2-(3,4-Dichloro-phenyl)-ethyl]-phenylamino}-5-dimethylamino-benzoic acid] | 24.8 | 75 to 80 | 4 µM | > 60 | > 100 µM |
| CN(C)c1cccc(CCCc2ccc(Nc3ccccc3C(=O)O)cc2)c1 [Example 28, 2-{4-[3-(3-Dimethylaminophenyl)propyl]phenylamino}benzoic acid] | 42.3 | 115 to 117 | 5 µM | 27 | > 100 µM |
| CCCCN(CCCC)c1ccc(CCc2ccc(Nc3ccc([N+](=O)[O-])cc3C(=O)O)cc2)cc1 [Example 79, 2-{4-[2-(4-Dibutylamino-phenyl)-ethyl]-phenylamino}-5-nitro-benzoic acid] | 9.14 | > 260 | 1 µM and 300 nM (3×) | 51 |  |
| CC(=O)Nc1cccc(CCCc2ccc(Nc3ccccc3C(=O)O)cc2)c1 [Example 40, 2-{4-[3-(3-Acetylaminophenyl)propyl]phenylamino}benzoic acid] | > 100 | 140 to 145 | 3 µM | 53 | > 100 µM |
| O=C(O)c1ccccc1Nc1ccc(CCCCCc2ccc(Cl)c(Cl)c2)cc1 [Example 135, 2-{4-[5-(3,4-Dichloro-phenyl)-pentyl]-phenylamino}-benzoic acid] | 31.2 | 106 to 108 | 1.2 µM | > 60 | > 100 µM |
| CN(C)c1ccc(N(C)c2ccc(CCc3ccc(Cl)c(Cl)c3)cc2)c(C(=O)O)c1 [Example 147, 2-({4-[2-(3,4-Dichloro-phenyl)-ethyl]-phenyl}-methyl-amino)-5-dimethylamino-benzoic acid] | 93.4 | 128 to 131 | 10 µM | > 60 | > 100 µM |
| O=C(O)c1ccccc1Nc1ccc(CCCc2cccc([N+](=O)[O-])c2)cc1 [Example 21, 2-{4-[3-(3-Nitrophenyl)propyl]phenylamino}benzoic acid] | 62.7 | 164 to 167 | 4 µM | 26 | 3 µM |
| O=C(O)c1ccc(C(F)(F)F)cc1Nc1ccc(CCc2ccc(Cl)c(Cl)c2)cc1 [Example 145, 2-{4-[2-(3,4-Dichloro-phenyl)-ethyl]-phenylamino}-4-trifluoromethyl-benzoic acid] | 56.8 | 134 to 136 | 4 µM | 9 | 10 µM and 40 µM and 30 µM |
| O=C(O)c1cc([N+](=O)[O-])ccc1Nc1ccc(CCc2ccccc2)cc1 [Example 65, 5-Nitro-2-(4-phenethyl-phenylamino)-benzoic acid] | 15.9 | 198 to 202 | 1.5 µM | > 100 | 60 µM and 80 µM |
| O=C(O)c1cc([N+](=O)[O-])ccc1Nc1ccc(CCc2ccc(F)c(F)c2)cc1 [Example 67, 2-{4-[2-(3,4-Difluoro-phenyl)-ethyl]-phenylamino}-5-nitro-benzoic acid] | 13.3 | 203 to 208 | 4 µM | > 60 | 41 µM |
| CCCCN(CCCC)c1cccc(CCc2ccc(Nc3ccccc3C(=O)O)cc2)c1.Cl [Example 38, 2-{4-[2-(3-Dibutylaminophenyl)ethyl]phenylamino}benzoic acid monohydrochloride] | 23.4 | 175 to 180 | 3 µM | 184 | 20 µM and 10 µM |
| CC(=O)Nc1ccc(CCCc2ccc(Nc3ccccc3C(=O)O)cc2)cc1 [Example 39, 2-{4-[3-(4-Acetylaminophenyl)propyl]phenylamino}benzoic acid] | > 100 | 176 to 178 | 20 µM | 21 | > 100 µM |
| Cc1ccc(Nc2ccc(CCc3ccc(Cl)c(Cl)c3)cc2)c(C(=O)O)c1 [Example 75, 2-{4-[2-(3,4-Dichloro-phenyl)-ethyl]-phenylamino}-5-methyl-benzoic acid] | 46.2 | 153 to 160 | 2.2 µM | > 60 | > 100 µM |
